*1 amine or outer side, *2 acyl side, *3 side chain or, on linkers, in order; H or OH if unused. Where a SMILES comes first, the peptide text is derived from it. Bridges are numbered along the chain shown (N, C = ends). [ ]: non-standard residue; d: D form. The star is where a group is joined. ξ: configuration not given here. Phe(3-OMe,4-CONHMs) = COc1cc(C[C@H](N)C(=O)O)ccc1C(=O)NS(C)(=O)=O; Phe(3-OMe,4-CONHMe) = CNC(=O)c1ccc(C[C@H](N)C(=O)O)cc1OC; CH2(1,2,4-oxadiazolon-3-yl) = O=c1[nH]c(C*)no1; Phe(4-COOH) = N[C@@H](Cc1ccc(C(=O)O)cc1)C(=O)O; X12 = O=C([C@H](CCCC(O)C(F)(F)F)N[*:1])[*:2]; Propyl(2,2-Me2,3-OH) = CC(C)(CO)C*; NMeF = CN[C@@H](Cc1ccccc1)C(=O)O; NMeGABA = CN(CCCC(=O)[*:2])[*:1]; NMeI = CC[C@H](C)[C@H](NC)C(=O)O; NMeL = CN[C@@H](CC(C)C)C(=O)O; NMeV = CN[C@H](C(=O)O)C(C)C; NMeAbu = CC[C@H](NC)C(=O)O; Piperidide = C1CCN(*)CC1; CH2CONHMe = CNC(=O)C*; NBuGly = CCCCNCC(=O)O; NPrGly = CCCNCC(=O)O; ξS = NC(CO)C(=O)O; N(OH)Me = CN(O)*; Sar = CNCC(=O)O; tBu = CC(C)(C)*
Assay: Membrane permeability test of cyclic peptides (Caco-2, modified/improved method of WO 2018/124162)
Settings: human
[1] = Caco-2, Caco-2 (cm/sec), membrane permeability of cyclic peptides, Caco-2

With CC(C)C[C@H]1C(=O)N[C@@H](C(C)C)C(=O)N(C)[C@@H](Cc2ccccc2)C(=O)N(C)[C@@H](Cc2ccccc2)C(=O)N[C@@H](COC(C)(C)C)C(=O)N(C)[C@@H](CC(C)C)C(=O)N[C@@H](CCCC(O)C(F)(F)F)C(=O)N(C)[C@@H](CC(C)C)C(=O)N(C)[C@@H](CC(C)C)C(=O)N[C@H](C(=O)N2CCCCC2)CC(=O)N(C)CCCC(=O)N1C (stereo partly drawn) [Compound D12] ([NMeGABA][NMeL]V[NMeF][NMeF]S(tBu)[NMeL][X12][NMeL][NMeL]D-Piperidide; lactam N-11) the Papp (Caco-2, Caco-2 (membrane permeability), Table 6, cyclic peptides containing Ser(1-CF3-EtOH) (C) or Hnl(7-F3-6-OH) (D)) was 0.13 ×10⁻⁶ cm/s.

CC[C@H](C)[C@@H]1NC(=O)[C@H](Cc2ccccc2)N(C)C(=O)CN(C)C(=O)C[C@@H](C(=O)N2CCCCC2)NC(=O)[C@H](C(C)C)N(C)C(=O)[C@H](COC(C)(C)C)NC(=O)[C@H](CC(C)C)N(C)C(=O)[C@H](Cc2ccccc2)N(C)C(=O)CN(C)C(=O)[C@H]([C@@H](C)O)NC(=O)[C@H](Cc2ccccc2)N(C)C1=O [pd205] ([Sar][NMeF]I[NMeF]T[Sar][NMeF][NMeL]S(tBu)[NMeV]D-Piperidide; lactam N-11) gave a Papp (Caco-2, Caco-2 (cm/sec), Table 36, Papp, sequences having Papp ≥ 1.0 × 10^−6 at ARC = 3) of 1.8 ×10⁻⁶ cm/s.

Work on CCCCN1CC(=O)N(C)[C@@H](CC(C)C)C(=O)N[C@H](C(=O)N2CCCCC2)CC(=O)N(C)[C@@H](CC)C(=O)N[C@@H](CC(C)C)C(=O)N(C)[C@@H](CC(C)C)C(=O)N(C)[C@@H](Cc2ccccc2)C(=O)NC(COCc2noc(=O)[nH]2)C(=O)N(C)[C@@H](CC(C)C)C(=O)N(C)[C@@H](CC(C)C)C(=O)N[C@@H]([C@@H](C)O)C1=O (stereo partly drawn) [AP47] ([NMeAbu]L[NMeL][NMeF][ξS](CH2(1,2,4-oxadiazolon-3-yl))[NMeL][NMeL]T[NBuGly][NMeL]D-Piperidide; lactam N-11) yielded a Papp [1] of 5.3 ×10⁻⁶ cm/s.

With CCCN1CC(=O)N(C)[C@@H](CC(C)C)C(=O)N[C@@H](CC(C)C)C(=O)N(C)[C@@H](Cc2ccccc2)C(=O)N(C)[C@@H](CC(C)C)C(=O)N[C@H](C(=O)N2CCCCC2)CC(=O)N[C@H](CC(C)C)C(=O)N(C)[C@@H](Cc2ccccc2)C(=O)N[C@@H](COCC(=O)NC)C(=O)N(C)[C@@H](CC(C)C)C(=O)N[C@@H]([C@@H](C)O)C1=O [Compound I01] ([dL][NMeF]S(CH2CONHMe)[NMeL]T[NPrGly][NMeL]L[NMeF][NMeL]D-Piperidide; lactam N-11) the Papp (Caco-2, Caco-2 (membrane permeability), Table 12, cyclic peptides containing Ser(NMe-Aca) (I) or Gln(Me) (J)) was 0.27 ×10⁻⁶ cm/s.

Compound CC[C@H](C)[C@H]1C(=O)N[C@@H]([C@@H](C)O)C(=O)N(C)CC(=O)N(C)[C@@H](CC)C(=O)N[C@H](C(=O)N2CCCCC2)CC(=O)N(C)[C@@H](CC(C)C)C(=O)N[C@@H](Cc2ccc(C(=O)NC)c(OC)c2)C(=O)N(C)[C@@H](CC(C)C)C(=O)N(C)[C@@H](Cc2ccccc2)C(=O)N[C@@H](CC(C)C)C(=O)N(C)[C@@H](CC(C)C)C(=O)N1C [AP31] ([NMeL][Phe(3-OMe,4-CONHMe)][NMeL][NMeF]L[NMeL][NMeI]T[Sar][NMeAbu]D-Piperidide; lactam N-11) has a Papp [1] of 0.52 ×10⁻⁶ cm/s.

Work on CC[C@H](C)[C@H]1C(=O)N[C@@H]([C@@H](C)O)C(=O)N(C)CC(=O)N(C)[C@@H](CC)C(=O)N[C@H](C(=O)N2CCCCC2)CC(=O)N(C)[C@@H](CC(C)C)C(=O)N[C@@H](Cc2ccc(C(=O)NS(C)(=O)=O)c(OC)c2)C(=O)N(C)[C@@H](CC(C)C)C(=O)N(C)[C@@H](Cc2ccccc2)C(=O)N[C@@H](CC(C)C)C(=O)N(C)[C@@H](CC(C)C)C(=O)N1C [AP139] ([NMeL][Phe(3-OMe,4-CONHMs)][NMeL][NMeF]L[NMeL][NMeI]T[Sar][NMeAbu]D-Piperidide; lactam N-11) yielded a Papp [1] of under 0.25 ×10⁻⁶ cm/s.

For CC(C)C[C@@H]1NC(=O)[C@H](Cc2ccccc2)N(C)C(=O)[C@H](Cc2ccccc2)N(C)C(=O)[C@H](COCC(C)(C)CO)NC(=O)[C@H](CC(C)C)N(C)C(=O)CCCN(C)C(=O)C[C@@H](C(=O)N2CCCCC2)NC(=O)[C@H](CC(C)C)N(C)C(=O)[C@H](CC(C)C)N(C)C(=O)[C@H]([C@@H](C)O)NC(=O)[C@H](CC(C)C)N(C)C1=O [AP119] ([NMeGABA][NMeL]S(Propyl(2,2-Me2,3-OH))[NMeF][NMeF]L[NMeL]T[NMeL][NMeL]D-Piperidide; lactam N-11), the Papp [1] was 0.34 ×10⁻⁶ cm/s.

With CC[C@H](C)[C@H]1C(=O)N[C@@H]([C@@H](C)O)C(=O)N(C)CC(=O)N(C)[C@@H](CC)C(=O)N[C@H](C(=O)N2CCCCC2)CC(=O)N(C)[C@@H](CC(C)C)C(=O)N[C@@H](Cc2ccc(C(=O)N(C)O)cc2)C(=O)N(C)[C@@H](CC(C)C)C(=O)N(C)[C@@H](Cc2ccccc2)C(=O)N[C@@H](CC(C)C)C(=O)N(C)[C@@H](CC(C)C)C(=O)N1C [AP252] ([NMeL][Phe(4-COOH)](N(OH)Me)[NMeL][NMeF]L[NMeL][NMeI]T[Sar][NMeAbu]D-Piperidide; lactam N-11) the Papp [1] was 0.13 ×10⁻⁶ cm/s.

With CCCCN1CC(=O)N(C)[C@@H](CC(C)C)C(=O)N[C@@H](COC(C)(C)C)C(=O)N(C)[C@@H](CC(C)C)C(=O)N(C)[C@@H](CC(C)C)C(=O)N[C@H](C(=O)N2CCCCC2)CC(=O)N[C@H](CC(C)C)C(=O)N(C)[C@@H](Cc2ccccc2)C(=O)NC(COCc2noc(=O)[nH]2)C(=O)N(C)[C@@H](CC(C)C)C(=O)N[C@@H]([C@@H](C)O)C1=O (stereo partly drawn) [AP45] ([dL][NMeF][ξS](CH2(1,2,4-oxadiazolon-3-yl))[NMeL]T[NBuGly][NMeL]S(tBu)[NMeL][NMeL]D-Piperidide; lactam N-11) the Papp [1] was 1.4 ×10⁻⁶ cm/s.

From US20230096766A1, “AMINO ACID HAVING FUNCTIONAL GROUP CAPABLE OF INTERMOLECULAR HYDROGEN BONDING, PEPTIDE COMPOUND CONTAINING SAME AND METHOD FOR PRODUCTION THEREOF” (Chugai Seiyaku Kabushiki Kaisha, priority 2018, published 2023)
